For data set [1] the following is noted: cited from earlier work; for pH: amino acid; for Solubility: at 25° C.
The conditions of data set [2]: cited from earlier work; for pH: pH is altered by concentration and temperature; for Solubility: solubility is altered by temperature.
Data set [3] in a line: Calculation of Essential pH and Stability Range Factor (SRF). In kind it is physicochemical. Conditions: calculated from pKa; read-out: Stability Range Factor (SRF), pH range (pKa + 0.7) to 10.9. The procedure:
A proton pump inhibitor dose within its calculated pHE range is designed to ensure sufficient proton pump inhibitor protection from acid degradation such that delivery to and action upon proton pumps occur. In one desirable embodiment, the pHE is the sum of the pKa of a given proton pump inhibitor plus about 0.7.
SRF is calculated based on the desirable shelf-life (or a dwell time), the environmental pH and the amount of acid expected to be encountered, along with a knowledge of the time of exposure expected after the drug is administered and before the drug reaches the blood (i.e., the dwell time).
The upper limit of the SRF is a function of the tolerability of the gastrointestinal mucosa to alkaline substances, which is determined by the Formulation pH and the concentration of alkaline material presented. […] It is acknowledged that the amount of buffer is an important aspect of the tissue destructive potential of an alkaline substance.
Examples of pHE calculations with SRF for specific proton pump inhibiting agents are as follows:
pHE of proton pump inhibitor=pKa of proton pump inhibitor+0.7.

The conditions of data set [4]: acidic stomach / gastric environment (pH of 1.2 where stated), upon complete dissolution; cited from earlier work.
For data set [5] the following is noted: cited from earlier work.
Data set [6] relates to gastric pH. Nature of the data set: Example IX: gastric pH of nasogastric aspirate (pH paper) in mechanically ventilated critically ill patients. In kind it is in vivo, human. Conditions: mean ± standard deviation where given. The procedure:
Each dose was administered through the nasogastric tube.
Gastric pH was measured immediately after aspirating gastric contents through the nasogastric tube. pH paper (pHydrion improved pH papers, Microessential Laboratory, Brooklyn, N.Y.) was used to measure gastric aspirate pH. The pH range of the test strips was 1 to 11, in increments of one pH unit. Gastric pH was measured before the initiation of omeprazole solution therapy, immediately before each dose, and every four hours between doses.

Data set [7] can be described thus: clinical. The settings on record: human, plasma, oral, 40 mg.
Data set [8] deals with gastric pH. Put plainly: Example XIV: continuous gastric pH monitoring (Zinetics probe) after omeprazole suspension. Conditions: from 1 h after administration for the entire 24-h study period; both routes.
Data set [9] can be described thus: clinical. The settings on record: human, plasma, 40 mg.
Data set [10] has as its system stress-related mucosal bleeding. Nature of the data set: Example IX: clinically significant stress-related mucosal bleeding, mortality, pneumonia and adverse events in mechanically ventilated critically ill patients.
A short description of data set [11]: Example XV: omeprazole concentration vs time after single dose SOS in patients at risk for SRMD (HPLC). Conditions: single dose SOS 40 mg.

Several values for one entry are separate records, joined by “and”; a condition that tells them apart may be missing. Equal values may be shown once. Entries after “also recorded” stand apart in the source; their conditions may differ. Read-outs that look alike come from different tables or passages of the source.

Consider `C[C@H](N)C(=O)O` [Alanine], for which, in data set [1], the pH is on record as 6 and the Solubility is reported as 16.65 g/100 g H2O.
As for `NC(=O)CC[C@H](N)C(=O)O` [Glutamine], the Solubility in [1] was 2.5 g/100 g H2O.
As to `O=C([O-])CC(O)(CC(=O)[O-])C(=O)[O-].O=C([O-])CC(O)(CC(=O)[O-])C(=O)[O-].[Ca+2].[Ca+2].[Ca+2]` [Calcium citrate], the pH in data set [2] is on record as 6.8.
For `N[C@@H](CC(=O)O)C(=O)O` [Aspartic Acid], the pH in [1] was 2.77.
`NCC(=O)O` [Glycine]: the pH in data set [1] is recorded as 5.97.
As to `Cc1c(OCC(F)(F)F)ccnc1C[S+]([O-])c1nc2ccccc2[nH]1` (centres unmarked) [Lansoprazole, lansoprazole], the Stability Range Factor (pH range) in data set [3] was 4.8 to 10.9. Moreover, the “time in which drug could undergo 50% degradation” value in data set [4] is 2 min. In addition, in [5], the Solubility in water entry is “very slightly” and the pKa result was “Lansoprazole has a pKa of 4.1; thus, the Essential pH = 4.1 + 0.7 ≧ 4.8”. For the same compound, the Solubility in water result in data set [5] (listed as Lansoprazole base) was “very slightly soluble in water”.
On to `COc1ccc2nc([S@@+]([O-])Cc3ncc(C)c(OC)c3C)[nH]c2c1` [esomeprazole], for which, in data set [5], the pKa result is on record as “Essential pH (esomeprazole pKa = 3.9 + 0.7 ≧ 4.6)”.
In the case of `N[C@@H](Cc1c[nH]cn1)C(=O)O` [Histidine], in [1], the pH is given as 7.47 and the Solubility is 4.19 g/100 g H2O.
With `NCCCC[C@H](N)C(=O)O` [Lysine], in data set [1], the pH is recorded as 9.59 and the Solubility entry is “Very”.
Regarding `O=C([O-])[C@H](O)[C@@H](O)[C@H](O)[C@H](O)CO.[Na+]` [Sodium gluconate], in [2], the pH was 6-8.
In the case of `COCCCOc1ccnc(C[S+]([O-])c2nc3ccccc3[nH]2)c1C` (centres unmarked) [rabeprazole], the Stability Range Factor (pH range) in [3] was 5.6 to 10.9.
Take `[O]=[Mg]` [Magnesium oxide]: in [2], the pH is reported as 9.5-10.5 and the Solubility is 0.62 mg/100 mL.
Consider Calcium glycerophosphate, for which the pH in data set [2] is listed as 7.
In the case of `CC(O)C(=O)[O-].[Na+]` (centres unmarked) [Sodium lactate], in [2], the pH is reported as 7.
As to `N[C@@H](CCC(=O)O)C(=O)O` [Glutamic Acid], the pH in data set [1] is reported as 3.22.
`N[C@@H](Cc1ccccc1)C(=O)O` [Phenylalanine]: in data set [1], the pH is given as 5.48 and the Solubility is 2.965 g/100 g H2O.
In the case of `N=C(N)NCCC[C@H](N)C(=O)O` [Arginine], in data set [1], the pH was 11.15.
As for `C[C@@H](O)[C@H](N)C(=O)O` [Threonine], the pH in [1] is 5.64.
In the case of `O=P(O)(O)OP(=O)(O)OP(=O)(O)O` [Sodium tripolyphosphate], in data set [2], the pH was 9.7-10 and the Solubility is 6 gm/100 mL.
`CC(C)C[C@H](N)C(=O)O` [Leucine]: the Solubility in data set [1] is recorded as 2.426 g/100 g H2O.
Regarding `COCCCOc1ccnc(C[S+]([O-])c2nc3ccccc3[nH]2)c1C` (centres unmarked) [Rabeprazole sodium], the “time in which drug could undergo 50% degradation” value in [4] is reported as “less than 1.5 minutes”. Besides, in [5], the Solubility in water result is listed as “very soluble in water” and the pKa is recorded as 4.9.
Take `N[C@@H](Cc1c[nH]c2ccccc12)C(=O)O` [Tryptophan]: in [1], the pH is listed as 5.89 and the Solubility is recorded as 1.136 g/100 g H2O.
In the case of `O=P([O-])([O-])[O-].[Na+].[Na+].[Na+]` [Sodium phosphate (tribasic)], the pH in data set [2] is 10.7-12.1.
For `CC(O)C(=O)[O-].CC(O)C(=O)[O-].[Ca+2]` (centres unmarked) [Calcium lactate], the pH in [2] is reported as 7.
On to `CC[C@H](C)[C@H](N)C(=O)O` [Isoleucine], for which, in data set [1], the pH was 5.94 and the Solubility is given as 4.117 g/100 g H2O.
Regarding `NC(=O)C[C@H](N)C(=O)O` [Asparagine], in data set [1], the pH is on record as 5.41 and the Solubility is on record as 3.53 g/100 g H2O.
In the case of `N[C@@H](CS)C(=O)O` [Cysteine], in [1], the pH is reported as 5.02 and the Solubility result is “Very”.
For `COc1ccc2[nH]c([S+]([O-])Cc3ncc(C)c(OC)c3C)nc2c1` (centres unmarked) [Omeprazole], the “gastric pH four hours after omeprazole was first administered (mean)” value in [6] (40 mg omeprazole solution per ng tube) was 7.1 and 7.1±1.1. Further, in [6], the “lowest gastric pH after starting omeprazole (mean)” value was 5.6 and 5.6±1.3; the “mean gastric pH after starting omeprazole (mean)” value is 6.8 and 6.8±0.6. In data set [7], this compound came in with a concentration at 0 h of 0 ng/mL. Further, the “mean intragastric pH values” in data set [8] is on record as over 4. Also, the Stability Range Factor (pH range) in [3] was 4.6 to 10.9. In addition, in [9], the concentration at 3 min is 27.5 ng/mL, the concentration at 5 min is 73.5 ng/mL and the concentration at 8 h is 232 ng/mL. The compound also had a concentration at 75 min in [9] (oral) of 610 ng/mL. In data set [4], the “time in which drug could undergo 50% degradation” value is “less than 3 minutes”. For the same compound, in data set [10] (high-risk population), the “adverse event or drug interaction attributable to omeprazole” value was “No patient; also recorded: No adverse events or drug interaction”. The incidence of pneumonia entry in [10] (nine of 75 patients) was “twelve”. In data set [5], the Solubility in water result is on record as “slightly soluble” and the pKa result was “Omeprazole has a pKa of 3.9; thus, the Essential pH = 3.9 + 0.7 ≧ 4.6”. The Solubility in water entry in [5] (listed as Omeprazole base) is “only slightly soluble in water”. In [11], the “absorption as measured by Area Under the Curve (AUC) compared to enteric-coated form” value is given as “did not appear to be significantly decreased”.
As for `O=C(O)[C@@H]1CCCN1` [Proline], in [1], the pH is given as 6.30.
On to `CC(C)[C@H](N)C(=O)O` [Valine], for which, in data set [1], the pH is on record as 5.96 and the Solubility is 8.85 g/100 g H2O.
In the case of `N[C@@H](Cc1ccc(O)cc1)C(=O)O` [Tyrosine], in data set [1], the pH is given as 5.66.
For the compound Calcium gluconate, the pH in data set [2] is 7.4.
`O=P([O-])([O-])O.[Na+].[Na+]` [Dibasic sodium phosphate]: the pH in data set [2] is listed as 8.6-9.3.
Consider `COc1ccnc(C[S+]([O-])c2nc3ccc(OC(F)F)cc3[nH]2)c1OC` (centres unmarked) [pantoprazole], for which the Stability Range Factor (pH range) in data set [3] is 3.7 to 10.9.
In the case of `N[C@@H](CO)C(=O)O` [Serine], the pH in data set [1] is 5.68.
Magnesium gluconate: the pH in data set [2] is 7.3.
For the compound `CC(O)C(=O)[O-].CC(O)C(=O)[O-].[Mg+2]` (centres unmarked) [Magnesium lactate], in data set [2], the pH is 5.5-7.5.
On to `COc1ccnc(C[S+]([O-])c2nc3ccc(OC(F)F)cc3[nH]2)c1OC` (centres unmarked) [Pantoprazole sodium], for which the “time in which drug could undergo 50% degradation” value in data set [4] was “less than 5 minutes”. For the same compound, the Solubility in water result in data set [5] is “very soluble”; in [5] (listed as pantoprazole sodium) it was “very soluble in water”. Moreover, the pKa in data set [5] was 3.
Regarding `O=C([O-])CC(O)(CC(=O)[O-])C(=O)[O-].[Na+].[Na+].[Na+]` [Sodium citrate], the pH in data set [2] is recorded as 5.
Consider `CSCC[C@H](N)C(=O)O` [Methionine], for which, in data set [1], the pH was 5.74 and the Solubility was 3.381 g/100 g H2O.

(Values after patent publication US20050004171A1, “Novel substituted benzimidazole dosage forms and method of using same” (priority 1996, published 2005).)
